For this test, the system named is P388 leukemia ip, CD2F1 mice, survival T/C. The experiment in a line: NCI In Vivo Anticancer Drug Screen. Data for tumor model P388 Leukemia (intraperitoneal) in CD2F1 (CDF1) mice. The conditions noted are these: endpoint: median survival time, higher = longer survival. An outline of the steps: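 Mice carrying the transplanted tumor received test compound or vehicle. Survival was recorded in each group, and the value is the treated-group measurement divided by that of the vehicle-treated control group.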

The mark [1] stands for this setting: dose: 50.0 mg/kg/injection, schedule: Q01DX005 (ip), vehicle: Klucel (hydroxypropylcellulose) (HPC).
The mark [2] stands for this setting: dose: 50.0 mg/kg/injection, schedule: Q01DX009 (ip), vehicle: saline.
Where [3] appears, read: dose: 100.0 mg/kg/injection, schedule: Q01DX009 (ip), vehicle: saline.
[4] abbreviates: dose: 200.0 mg/kg/injection, schedule: Q01DX009 (ip), vehicle: saline.
Setting [5] is: dose: 50.0 mg/kg/injection, schedule: Q04DX003 (ip), vehicle: saline with Tween-80.
The mark [6] stands for this setting: dose: 100.0 mg/kg/injection, schedule: Q04DX003 (ip), vehicle: saline with Tween-80.
Setting [7] is: dose: 200.0 mg/kg/injection, schedule: Q04DX003 (ip), vehicle: saline with Tween-80.
The mark [8] stands for this setting: dose: 50.0 mg/kg/injection, schedule: Q01DX009 (ip), vehicle: Klucel (hydroxypropylcellulose) (HPC).
[9] abbreviates: dose: 100.0 mg/kg/injection, schedule: Q01DX005 (ip), vehicle: Klucel (hydroxypropylcellulose) (HPC).
Where [10] appears, read: dose: 200.0 mg/kg/injection, schedule: Q01DX005 (ip), vehicle: Klucel (hydroxypropylcellulose) (HPC).
Where [11] appears, read: dose: 100.0 mg/kg/injection, schedule: Q01DX009 (ip), vehicle: Klucel (hydroxypropylcellulose) (HPC).
Where [12] appears, read: dose: 200.0 mg/kg/injection, schedule: Q01DX009 (ip), vehicle: Klucel (hydroxypropylcellulose) (HPC).
Setting [13] is: dose: 50.0 mg/kg/injection, schedule: Q01DX009 (ip), vehicle: saline with Tween-80.
Where [14] appears, read: dose: 100.0 mg/kg/injection, schedule: Q01DX009 (ip), vehicle: saline with Tween-80.
Where [15] appears, read: dose: 200.0 mg/kg/injection, schedule: Q01DX009 (ip), vehicle: saline with Tween-80.

The structures appear in SMILES notation. Values joined by “and” are separate entries in the source; they are usually repeats but may differ in a detail not shown here. Equal values may be shown once. Toxic doses and inconclusive results are not listed.

This note sets out measurements from PubChem BioAssay AID330 (DTP/NCI, 2004).

As for `COc1ccc2c(c1)C=C([N+](=O)[O-])C(N1CCOCC1)O2` (centres undefined), the T/C (dose: 12.5 mg/kg/injection, schedule: Q01DX005 (ip), vehicle: Klucel (hydroxypropylcellulose) (HPC)) was 106 % of control; the T/C (dose: 25.0 mg/kg/injection, schedule: Q01DX005 (ip), vehicle: Klucel (hydroxypropylcellulose) (HPC)) was 108 % of control; the T/C under setting [1] was 101 % of control and 109 % of control.

As to `Cc1ccc(N2C(=O)c3cccc4c(N)c(S(=O)(=O)O)cc(c34)C2=O)cc1`, the T/C reads like this: under setting [2], 108 % of control; under setting [3], 104 % of control; under setting [4], 100 % of control.

Consider `COC(=O)/C(=C\SC(C)=O)NC(C)=O`, for which the T/C is, setting by setting: (dose: 100.0 mg/kg/injection, schedule: Q04DX002 (ip), vehicle: saline with Tween-80) 107 % of control; (dose: 200.0 mg/kg/injection, schedule: Q04DX002 (ip), vehicle: saline with Tween-80) 105 % of control; (dose: 400.0 mg/kg/injection, schedule: Q04DX002 (ip), vehicle: saline with Tween-80) 117 % of control.

As for `Nc1nc(Cl)c2nc(Cl)n(C3OC(CO)C(O)C3O)c2n1` (centres undefined), the T/C by setting is: under setting [5], 100 % of control; under setting [6], 100 % of control; under setting [7], 100 % of control; (dose: 400.0 mg/kg/injection, schedule: Q04DX003 (ip), vehicle: saline with Tween-80) 91 % of control.

In the case of `Nc1nc(Sc2ccc([N+](=O)[O-])c3nonc23)c2ncn(C3OC(CO)C(O)C3O)c2n1` (centres undefined), the T/C is 113 % of control (dose: 3.12 mg/kg/injection, schedule: Q01DX009 (ip), vehicle: Klucel (hydroxypropylcellulose) (HPC)); 113 % of control (dose: 6.25 mg/kg/injection, schedule: Q01DX009 (ip), vehicle: Klucel (hydroxypropylcellulose) (HPC)); 122 % of control (dose: 25.0 mg/kg/injection, schedule: Q01DX009 (ip), vehicle: Klucel (hydroxypropylcellulose) (HPC)); 102 % of control and 118 % of control under setting [8].

Consider `CN=C(NC)c1ccc(NC(=O)c2ccc(C(=O)Nc3ccc(C(=NC)NC)cc3)c(Cl)c2)cc1`, for which the T/C by setting is: (dose: 18.0 mg/kg/injection, schedule: Q01DX010 (ip), vehicle: saline) 218 % of control; (dose: 27.0 mg/kg/injection, schedule: Q01DX010 (ip), vehicle: saline) 254 % of control; (dose: 40.0 mg/kg/injection, schedule: Q01DX010 (ip), vehicle: saline) 209 % of control; (dose: 60.0 mg/kg/injection, schedule: Q01DX010 (ip), vehicle: saline) 154 % of control.

`CCN(CC)C(C)C(=O)Nc1c(C)cccc1Cl` (centres undefined): the T/C (dose: 12.5 mg/kg/injection, schedule: Q01DX009 (ip), vehicle: saline) is 100 % of control; the T/C (dose: 25.0 mg/kg/injection, schedule: Q01DX009 (ip), vehicle: saline) is 90 % of control; the T/C under setting [2] is 100 % of control.

Consider `CS1(C)=Nc2c([N+](=O)[O-])cc([N+](=O)[O-])cc2S(=O)(=O)N=1`, for which the T/C is 98 % of control (dose: 60.0 mg/kg/injection, schedule: Q01DX005 (ip), vehicle: saline with Tween-80); 94 % of control (dose: 120.0 mg/kg/injection, schedule: Q01DX005 (ip), vehicle: saline with Tween-80); 94 % of control (dose: 240.0 mg/kg/injection, schedule: Q01DX005 (ip), vehicle: saline with Tween-80).

For `Clc1ccc(CSc2nnc3c(n2)[nH]c2ccccc23)cc1`, the T/C is 100 % of control under setting [1], 107 % of control under setting [9] and 98 % of control under setting [10].

For `CCN(CC)CCOCCO`, the T/C was 100 % of control under setting [2], 109 % of control under setting [3] and 100 % of control under setting [4].

For the molecule `CCOC(=O)CNC(=O)Nc1ccc(S(=O)(=O)Nc2nc(C)cc(C)n2)cc1`, the T/C runs as follows: under setting [8], 102 % of control; under setting [11], 100 % of control; under setting [12], 100 % of control.

For the molecule `COc1c2c3c4c5c(c(=O)cc6c5c5c(cc(=O)c(c1O)c35)OCO6)=C(O)[C@@]1(OC)O[C@H](C)C[C@@]41C2`, the T/C was 95 % of control (dose: 2.5 mg/kg/injection, schedule: Q01DX009 (ip), vehicle: saline with Tween-80); 95 % of control (dose: 5.0 mg/kg/injection, schedule: Q01DX009 (ip), vehicle: saline with Tween-80); 95 % of control (dose: 10.0 mg/kg/injection, schedule: Q01DX009 (ip), vehicle: saline with Tween-80).

For the molecule `COc1ccc(OC)c2c(Cl)cc(NCCCN3CCN(CCCNc4cc(Cl)c5c(OC)ccc(OC)c5n4)CC3)nc12`, the T/C was 97 % of control under setting [1], 93 % of control under setting [9] and 90 % of control under setting [10].

For `N=c1c2c(C(N)=O)cn(C3OC(CO)C(O)C3O)c2ncn1N` (centres undefined), under “dose: 50.0 mg/kg/injection, schedule: Q01DX005 (ip), vehicle: water”, the T/C was 166 % of control.

Consider `BrC1/C=C\CC(Br)/C=C\C1` (centres undefined), for which the T/C is 110 % of control under setting [13], 117 % of control under setting [14] and 115 % of control under setting [15].

`O=[N+]([O-])c1ccc(N2CCN(c3ccccc3)CC2)c2c1no[n+]2[O-]`: the T/C reads like this: (dose: 37.5 mg/kg/injection, schedule: Q04DX003 (ip), vehicle: saline) 105 % of control; (dose: 37.5 mg/kg/injection, schedule: Q04DX003 (ip), vehicle: suspension in saline) 104 % of control; (dose: 75.0 mg/kg/injection, schedule: Q04DX003 (ip), vehicle: saline) 100 % of control; (dose: 75.0 mg/kg/injection, schedule: Q04DX003 (ip), vehicle: suspension in saline) 100 % of control; (dose: 150.0 mg/kg/injection, schedule: Q04DX003 (ip), vehicle: saline) 97 % of control; (dose: 150.0 mg/kg/injection, schedule: Q04DX003 (ip), vehicle: suspension in saline) 111 % of control. The T/C is 101 % of control (dose: 300.0 mg/kg/injection, schedule: Q04DX003 (ip), vehicle: saline) and 104 % of control (dose: 300.0 mg/kg/injection, schedule: Q04DX003 (ip), vehicle: suspension in saline).

As for `CN1CCc2cc3c(c4c2C1C(O)c1ccccc1-4)OCO3` (centres undefined), the T/C was 109 % of control (dose: 0.12 mg/kg/injection, schedule: Q01DX009 (ip), vehicle: acid diluted with saline); 97 % of control (dose: 0.25 mg/kg/injection, schedule: Q01DX009 (ip), vehicle: acid diluted with saline); 92 % of control (dose: 2.0 mg/kg/injection, schedule: Q01DX009 (ip), vehicle: acid diluted with saline); 108 % of control (dose: 4.0 mg/kg/injection, schedule: Q01DX009 (ip), vehicle: acid diluted with saline).

With `[Cl][Pt].c1ccc([PH+](CCC[PH+](c2ccccc2)c2ccccc2)CCC[PH+](c2ccccc2)c2ccccc2)cc1`, the T/C was 109 % of control (dose: 12.5 mg/kg/injection, schedule: Q04DX003 (ip), vehicle: saline with Tween-80); 109 % of control (dose: 25.0 mg/kg/injection, schedule: Q04DX003 (ip), vehicle: saline with Tween-80); 97 % of control under setting [5]; 95 % of control under setting [6]; 104 % of control under setting [7].

In the case of `O=C(Nc1ccc(CC2=NCCCN2)cc1)c1ccc(C(=O)Nc2ccc(CC3=NCCCN3)cc2)cc1`, the T/C is 93 % of control (dose: 0.78 mg/kg/injection, schedule: Q01DX005 (ip), vehicle: saline with Tween-80) and 112 % of control (dose: 1.56 mg/kg/injection, schedule: Q01DX005 (ip), vehicle: saline with Tween-80).

For `CN1C(=O)C(=O)N2c3ccc(Cl)cc3C3(c4ccccc4)N=CC12O3` (centres undefined), the T/C by setting is: (dose: 100.0 mg/kg/injection, schedule: Q04DX003 (ip), vehicle: Klucel (hydroxypropylcellulose) (HPC)) 109 % of control; (dose: 200.0 mg/kg/injection, schedule: Q04DX003 (ip), vehicle: Klucel (hydroxypropylcellulose) (HPC)) 112 % of control; (dose: 400.0 mg/kg/injection, schedule: Q04DX003 (ip), vehicle: Klucel (hydroxypropylcellulose) (HPC)) 113 % of control.

As to `CN(/N=C/c1ccc(N(C)C)cc1)C(=O)c1ccccc1N`, the T/C is 100 % of control under setting [13], 93 % of control under setting [14] and 94 % of control under setting [15].

As for `CC(=O)OC1OC(CS[As](C)CCO)C(OC(C)=O)C(OC(C)=O)C1OC(C)=O` (centres undefined), the T/C by setting is: under setting [8], 110 % of control; under setting [11], 112 % of control; under setting [12], 112 % of control.
